Assays:
[1] = target: T1, Adenosine A2 receptor (UniProt P29275+P29274); settings: Canis lupus familiaris
Description: Molar potency ratio (MPR) against adenosine A2 receptor of canine coronary artery

[2] = Index of hydrophobicity (k'); format: ADME
[3] = target: T1, Adenosine A2 receptor; assay: Acidic dissociation constant(pKa) against A2 adenosine receptor of coronary artery; format: protein assay; settings: Canis lupus familiaris

SMILES | MPR [1] | k' [2] | pka [3]
OC[C@H]1OC(n2cnc3c(Nc4cccc(Cl)c4)ncnc32)[C@H](O)[C@@H]1O (some centres undefined) | 0.2 | 5.05 | 2.61
COc1ccccc1Nc1ncnc2c1ncn2C1O[C@H](CO)[C@@H](O)[C@H]1O (some centres undefined) | 0.28 | 1.93 | 2.97
Cc1ccc(Nc2ncnc3c2ncn3C2O[C@H](CO)[C@@H](O)[C@H]2O)cc1 (some centres undefined) | 1.3 | 3.28 | 2.79
Cc1ccc(CCNc2ncnc3c2ncn3C2O[C@H](CO)[C@@H](O)[C@H]2O)cc1 (some centres undefined) | 0.46 | 4.76 | 3.4
OC[C@H]1O[C@@H](n2cnc3c(NCCc4ccccc4)ncnc32)[C@H](O)[C@@H]1O | 2 | 1.77 | 3.57
OC[C@H]1O[C@@H](n2cnc3c(NCc4ccccc4Cl)ncnc32)[C@H](O)[C@@H]1O | 1.2 | 3.12 | 3.06
OC[C@H]1OC(n2cnc3c(NCCc4cccnc4)ncnc32)[C@H](O)[C@@H]1O (some centres undefined) | 3 | 0.38 | < 1
OC[C@H]1OC(n2cnc3c(NCCc4ccccn4)ncnc32)[C@H](O)[C@@H]1O (some centres undefined) | 1 | 0.39 | < 1
OC[C@H]1OC(n2cnc3c(NCCc4ccccc4F)ncnc32)[C@H](O)[C@@H]1O (some centres undefined) | 1.9 | 2.36 | 3.19
OC[C@H]1O[C@@H](n2cnc3c(NC4CCCc5ccccc5C4)ncnc32)[C@H](O)[C@@H]1O (some centres undefined) | 0.05 | 9.07 | 
CC(CCc1ccccc1)Nc1ncnc2c1ncn2C1O[C@H](CO)[C@@H](O)[C@H]1O (some centres undefined) | 0.19 | 6.11 | 
OC[C@H]1O[C@@H](n2cnc3c(NCc4ccccc4)ncnc32)[C@H](O)[C@@H]1O [N6-BENZYLADENOSINE] | 0.52 | 1.21 | 3.07
OC[C@H]1OC(n2cnc3c(NCc4ccc(Cl)cc4Cl)ncnc32)[C@H](O)[C@@H]1O (some centres undefined) | 0.05 | 8.86 | 
OC[C@H]1OC(n2cnc3c(NCCc4nc5ccccc5[nH]4)ncnc32)[C@H](O)[C@@H]1O (some centres undefined) | 0.4 | 1.45 | 
COc1ccc(CCNc2ncnc3c2ncn3C2O[C@H](CO)[C@@H](O)[C@H]2O)cc1 (some centres undefined) | 0.29 | 1.93 | 3.49
Cc1ccc(CNc2ncnc3c2ncn3[C@@H]2O[C@H](CO)[C@@H](O)[C@H]2O)cc1 | 0.04 | 3.04 | 3.19
Cc1cccc(Nc2ncnc3c2ncn3C2O[C@H](CO)[C@@H](O)[C@H]2O)c1 (some centres undefined) | 0.023 | 3.28 | 2.79
Cc1cccc(CNc2ncnc3c2ncn3[C@@H]2O[C@H](CO)[C@@H](O)[C@H]2O)c1 | 0.85 | 2.92 | 
COc1cc(CCNc2ncnc3c2ncn3C2O[C@H](CO)[C@@H](O)[C@H]2O)cc(OC)c1OC (some centres undefined) | 5.2 | 1.54 | 
OC[C@H]1OC(n2cnc3c(NCCc4ccc5c(c4)OCO5)ncnc32)[C@H](O)[C@@H]1O (some centres undefined) | 0.42 | 2.52 | 
OC[C@H]1OC(n2cnc3c(NCc4ccc(Cl)c(Cl)c4)ncnc32)[C@H](O)[C@@H]1O (some centres undefined) | 0.28 | 7.12 | 
OC[C@H]1OC(n2cnc3c(NCCc4cccc(Cl)c4)ncnc32)[C@H](O)[C@@H]1O (some centres undefined) | 1.3 | 4.14 | 
OC[C@H]1OC(n2cnc3c(NCCc4c[nH]cn4)ncnc32)[C@H](O)[C@@H]1O (some centres undefined) | 0.42 | 0.14 | 
OC[C@H]1OC(n2cnc3c(NCc4cccs4)ncnc32)[C@H](O)[C@@H]1O (some centres undefined) | 0.23 | 1.04 | 
OC[C@H]1OC(n2cnc3c(NCCc4ccc(O)cc4)ncnc32)[C@H](O)[C@@H]1O (some centres undefined) | 0.9 | 0.43 | 
OC[C@H]1O[C@@H](n2cnc3c(NCC(c4ccccc4)c4ccccc4)ncnc32)[C@H](O)[C@@H]1O | 0.71 | 8.29 | 
OC[C@H]1OC(n2cnc3c(NCc4cccnc4)ncnc32)[C@H](O)[C@@H]1O (some centres undefined) | 0.69 | 0.29 | 
C[C@@H](Nc1ncnc2c1ncn2[C@@H]1O[C@H](CO)[C@@H](O)[C@H]1O)c1ccccc1 | 0.52 | 1.64 | 
OC[C@H]1OC(n2cnc3c(NCCc4cnc5ccccc5c4)ncnc32)[C@H](O)[C@@H]1O (some centres undefined) | 1.2 | 3.64 | 

Continued, values first:

MPR [1] | k' [2] | pka [3] | SMILES
0.005 | 3.44 | 3.61 | OC[C@H]1O[C@@H](n2cnc3c(NCc4ccc(Cl)cc4)ncnc32)[C@H](O)[C@@H]1O
0.26 | 1.32 | 2.59 | COc1cccc(Nc2ncnc3c2ncn3C2O[C@H](CO)[C@@H](O)[C@H]2O)c1 (some centres undefined)
0.42 | 2.36 | 2.76 | OC[C@H]1OC(n2cnc3c(Nc4ccccc4Cl)ncnc32)[C@H](O)[C@@H]1O (some centres undefined)
0.42 | 0.32 | < 1 | OC[C@H]1OC(n2cnc3c(NCCc4ccncc4)ncnc32)[C@H](O)[C@@H]1O (some centres undefined)
0.67 | 4.52 | 3.32 | Cc1ccccc1CCNc1ncnc2c1ncn2C1O[C@H](CO)[C@@H](O)[C@H]1O (some centres undefined)
0.91 | 1.48 | 2.39 | OC[C@H]1OC(n2cnc3c(Nc4ccccc4F)ncnc32)[C@H](O)[C@@H]1O (some centres undefined)
0.24 | 3.81 |  | OC[C@H]1O[C@@H](n2cnc3c(NCC4CCc5ccccc54)ncnc32)[C@H](O)[C@@H]1O (some centres undefined)
0.14 | 2.05 |  | COc1ccc(CCCNc2ncnc3c2ncn3C2O[C@H](CO)[C@@H](O)[C@H]2O)cc1OC (some centres undefined)
0.4 | 2.63 |  | COc1cc(OC)c(OC)cc1CCNc1ncnc2c1ncn2C1O[C@H](CO)[C@@H](O)[C@H]1O (some centres undefined)
1.3 | 2 |  | COc1cccc(CCNc2ncnc3c2ncn3C2O[C@H](CO)[C@@H](O)[C@H]2O)c1 (some centres undefined)
1.8 | 5.97 |  | OC[C@H]1OC(n2cnc3c(NCc4cc(Cl)ccc4Cl)ncnc32)[C@H](O)[C@@H]1O (some centres undefined)
0.024 | 5.5 |  | OC[C@H]1OC(n2cnc3c(NCc4c(Cl)cccc4Cl)ncnc32)[C@H](O)[C@@H]1O (some centres undefined)
0.04 | 2.1 |  | COc1ccc(Nc2ncnc3c2ncn3C2O[C@H](CO)[C@@H](O)[C@H]2O)cc1OC (some centres undefined)
0.48 | 3.15 |  | Cc1ccc(Nc2ncnc3c2ncn3C2O[C@H](CO)[C@@H](O)[C@H]2O)c(C)c1 (some centres undefined)
0.043 | 5.98 |  | Cc1ccc(Nc2ncnc3c2ncn3C2O[C@H](CO)[C@@H](O)[C@H]2O)cc1C (some centres undefined)
0.11 | 6.82 |  | OC[C@H]1OC(n2cnc3c(NCCc4cccc5ccccc45)ncnc32)[C@H](O)[C@@H]1O (some centres undefined)
0.056 | 2.05 |  | COc1cc(CCCNc2ncnc3c2ncn3C2O[C@H](CO)[C@@H](O)[C@H]2O)cc(OC)c1OC (some centres undefined)
1.6 | 2.36 |  | OC[C@H]1OC(n2cnc3c(NCCc4cccc(F)c4)ncnc32)[C@H](O)[C@@H]1O (some centres undefined)
0.22 | 4.75 |  | Cc1ccc(C)c(Nc2ncnc3c2ncn3C2O[C@H](CO)[C@@H](O)[C@H]2O)c1 (some centres undefined)
0.19 | 2 |  | OC[C@H]1OC(n2cnc3c(NC4CCCC[C@@H]4c4ccccc4)ncnc32)[C@H](O)[C@@H]1O (some centres undefined)
0.34 | 3.36 |  | OC[C@H]1O[C@@H](n2cnc3c(NCc4cccc(Cl)c4)ncnc32)[C@H](O)[C@@H]1O
